Like-named read-outs stand apart in the source and are kept apart here.
Target: human recombinant TAK1-TAB1 Kinase (TAK1 (1-303) and TAB1 (437-end)) (Homo sapiens (Human), UniProt O43318)
Assay: TAK1 biochemical ADP-Glo kinase assay
Conditions: MBP substrate
Procedure: The usefulness of the example compounds of the invention as TAK1 inhibitors was evaluated in a biochemical ADP-Glo kinase assay. Assay kits from Promega Corporation V4089 were used according to manufacturer's instructions and adapted as outlined here. ADP-Glo Kinase Assay kit contains ADP-Glo Reagent, Kinase Detection Reagent, kinase detection buffer, ATP, and ADP. The Kinase Enzyme Systems include human recombinant TAK1-TAB1 Kinase (TAK1 (1-303) and TAB1 (437-end)), Native Swine Myelin Basic Protein (MBP) substrate, 5×kinase reaction buffer, and DTT.
Test compounds were prepared in 1:5 serial dilutions at 8 concentrations in DMSO from 10 mM stock solutions. An additional 20-fold dilution in 1× kinase reaction buffer (see below) was performed, yielding a final dilution series in kinase buffer with 5% DMSO (final concentration in assay from 20 μM to 0.26 nM, 1% DMSO). As controls, Takinib was prepared as positive control (3 μM final in assay), and DMSO without inhibitor served as negative control, at a final assay concentration of DMSO of 1%.
One μl of compound solution in 5% DMSO was added to each well in a 384 well microtiter plate (OptiPlate #6007290). Two μl TAK1-TAB1 (7.5 ng/μl) in lxkinase reaction buffer ([…] Tris base pH 7.5, 20 mM MgCl2, 50 μM DTT, 0.1 mg/ml BSA) was added and pre-incubated 10 min before adding 2 μl of a mixture of MBP substrate and ATP (0.25 μg/μL MBP/25 μM ATP or 0.25 μg/μL MBP/2.5 mM ATP) in 1× kinase reaction buffer (as above). The plate was subsequently incubated at room temperature for 1 hour. Then 5 μl ADP-Glo™ reagent from ADP-Glo™ kit (as above) was added and incubated for 40 min to stop the reaction and consume remaining ATP. Ten μl kinase detection substrate (dissolved in kinase detection buffer, both from ADP-Glo™ kit as above) was then added to convert ADP to ATP and detect ATP with luciferase/luciferin. The plate was incubated for 30 minutes at room temperature in dark before reading luminescence on an Envision (PerkinElmer) reader.
IC50 values of compounds of the invention were determined by the non-linear regression analysis of dose response curves.

[1] = 10 μM ATP, read-out: TAK1 Mean IC50 (nM) @ 10 μM ATP
[2] = 1 mM ATP, read-out: TAK1 Mean IC50 (nM) @ 1 mM ATP

Sequence of human recombinant TAK1-TAB1 Kinase (TAK1 (1-303) and TAB1 (437-end)) (O43318 other isoform, or with tags, fused parts or gaps): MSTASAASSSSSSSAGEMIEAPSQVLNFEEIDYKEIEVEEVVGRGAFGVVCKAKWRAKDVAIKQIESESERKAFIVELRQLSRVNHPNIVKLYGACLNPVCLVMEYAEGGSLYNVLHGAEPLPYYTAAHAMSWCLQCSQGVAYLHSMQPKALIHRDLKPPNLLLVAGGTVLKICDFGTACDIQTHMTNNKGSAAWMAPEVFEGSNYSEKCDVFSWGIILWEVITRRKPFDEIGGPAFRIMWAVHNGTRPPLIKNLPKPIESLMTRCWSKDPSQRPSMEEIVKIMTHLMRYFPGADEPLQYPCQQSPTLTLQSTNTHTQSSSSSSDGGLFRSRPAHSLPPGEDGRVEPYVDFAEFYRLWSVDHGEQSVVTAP

SMILES	IC50 [1]	IC50 [2]
CC1CCCCNC(=O)c2cccc(c2)C(=O)/N=C2\Nc3cccc(C(=O)N4CC5(COC5)C4)c3N21 (stereo not drawn) [Example 42, (E)-11-methyl-1^7-(2-oxa-6-azaspiro[3.3]heptane-6-carbonyl)-1^2,1^3-dihydro-1^1H-2,6-diaza-1(2,1)-benzo[d]imidazola-4(1,3)-benzenacycloundecaphane-3,5-dione]	7 nM	
CC1CCCNC(=O)c2cccc(c2)C(=O)Nc2nc3cccc(C(=O)N(C)C)c3n2C1 (stereo not drawn) [Example 51, (E)-N,N,10-trimethyl-3,5-dioxo-1^2,1^3-dihydro-1^1H-2,6-diaza-1(2,1)-benzo[d]imidazola-4(1,3)-benzenacycloundecaphane-1^7-carboxamide]	136 nM	
CC1CCCNC(=O)c2cccc(c2)C(=O)Nc2nc3cccc(C(=O)N(C)C)c3n2C1 (stereo not drawn) [Example 52, (E)-N,N,10-trimethyl-3,5-dioxo-1^2,1^3-dihydro-1^1H-2,6-diaza-1(2,1)-benzo[d]imidazola-4(1,3)-benzenacycloundecaphane-1^7-carboxamide]	63 nM	
C[C@@H]1CCCCNC(=O)c2cccc(c2)C(=O)Nc2nc3cccc(-c4ncn(C)n4)c3n21 [Example 83, (R)-11-methyl-1^7-(1-methyl-1H-1,2,4-triazol-3-yl)-1^1H-2,6-diaza-1(2,1)-benzo[d]imidazola-4(1,3)-benzenacycloundecaphane-3,5-dione]	6 nM	
C[C@@H]1CCCCNC(=O)c2cccc(c2)C(=O)Nc2nc3cccc(-c4ncnn4C)c3n21 [Example 85, (R,E)-11-methyl-1^7-(1-methyl-1H-1,2,4-triazol-5-yl)-1^1H-2,6-diaza-1(2,1)-benzo[d]imidazola-4(1,3)-benzenacycloundecaphane-3,5-dione]	3 nM	
CC1CCCCNC(=O)c2cccc(c2)C(=O)Nc2nc3cccc(-c4nccn4C(F)F)c3n21 (stereo not drawn) [Example 90, (E)-1^7-(1-(difluoromethyl)-1H-imidazol-2-yl)-11-methyl-1^2,1^3-dihydro-1^1H-2,6-diaza-1(2,1)-benzo[d]imidazola-4(1,3)-benzenacycloundecaphane-3,5-dione]	6 nM	
C[C@@H]1CCCCNC(=O)c2cccc(c2)C(=O)/N=C2\Nc3cccc(C(=O)N4CC(C)(O)C4)c3N21 [Example 94, (R,E)-1^7-(3-hydroxy-3-methylazetidine-1-carbonyl)-11-methyl-1^2,1^3-dihydro-1^1H-2,6-diaza-1(2,1)-benzo[d]imidazola-4(1,3)-benzenacycloundecaphane-3,5-dione]	5 nM	
C[C@H]1CCCCNC(=O)c2cccc(c2)C(=O)/N=C2\Nc3cccc(C(=O)N4CC(C)(O)C4)c3N21 [Example 95, (S,E)-1^7-(3-hydroxy-3-methylazetidine-1-carbonyl)-11-methyl-1^2,1^3-dihydro-1^1H-2,6-diaza-1(2,1)-benzo[d]imidazola-4(1,3)-benzenacycloundecaphane-3,5-dione]	6 nM	
Cc1nnc(-c2cccc3c2N2/C(=N/C(=O)c4cccc(c4)C(=O)NCCCC[C@@H]2C)N3)n1C [Example 96, (S,E)-1^7-(4,5-dimethyl-4H-1,2,4-triazol-3-yl)-11-methyl-1^2,1^3-dihydro-1^1H-2,6-diaza-1(2,1)-benzo[d]imidazola-4(1,3)-benzenacycloundecaphane-3,5-dione]	11 nM	7 nM
CN1CCN(Cc2ccc3c(c2)N/C2=N\C(=O)c4ccc(F)c(c4)C(=O)NCCCCCN23)CC1 [Example 103, (E)-4^4-fluoro-1^5-((4-methylpiperazin-1-yl)methyl)-1^2,1^3-dihydro-1^1H-2,6-diaza-1(2,1)-benzo[d]imidazola-4(1,3)-benzenacycloundecaphane-3,5-dione]	3 nM	
CN1CCN(Cc2ccc3c(c2)N/C2=N\C(=O)c4csc(c4)C(=O)NCCCCCN23)CC1 [Example 104, (1^2E,4^2Z)-1^5-((4-methylpiperazin-1-yl)methyl)-1^2,1^3-dihydro-1^1H-2,6-diaza-1(2,1)-benzo[d]imidazola-4(4,2)-thiophenacycloundecaphane-3,5-dione]	4 nM	
CN1CCN(Cc2ccc3c(c2)N/C2=N\C(=O)c4cc(ccc4F)C(=O)NCCCCCN23)CC1 [Example 105, (E)-4^6-fluoro-1^5-((4-methylpiperazin-1-yl)methyl)-1^2,1^3-dihydro-1^1H-2,6-diaza-1(2,1)-benzo[d]imidazola-4(1,3)-benzenacycloundecaphane-3,5-dione]	6 nM	
C[C@H]1CCCCNC(=O)c2cccc(c2)C(=O)/N=C2\Nc3cccc(C(=O)N4CC[C@@](C)(O)C4)c3N21 [Example 106, (S,E)-1^7-((R)-3-hydroxy-3-methylpyrrolidine-1-carbonyl)-11-methyl-1^2,1^3-dihydro-1^1H-2,6-diaza-1(2,1)-benzo[d]imidazola-4(1,3)-benzenacycloundecaphane-3,5-dione]		6 nM
C[C@H]1CCCCNC(=O)c2cccc(c2)C(=O)/N=C2\Nc3cccc(C(=O)N4CC(OC5CC5)C4)c3N21 [Example 107, (S,E)-1^7-(3-cyclopropoxyazetidine-1-carbonyl)-11-methyl-1^2,1^3-dihydro-1^1H-2,6-diaza-1(2,1)-benzo[d]imidazola-4(1,3)-benzenacycloundecaphane-3,5-dione]		4 nM
C[C@H]1CCCCNC(=O)c2cccc(c2)C(=O)/N=C2\Nc3cccc(C(=O)N4CC(OC(F)(F)F)C4)c3N21 [Example 110, (S,E)-11-methyl-1^7-(3-(trifluoromethoxy)azetidine-1-carbonyl)-1^2,1^3-dihydro-1^1H-2,6-diaza-1(2,1)-benzo[d]imidazola-4(1,3)-benzenacycloundecaphane-3,5-dione]		26 nM
C[C@H]1CCCCNC(=O)c2cccc(c2)C(=O)/N=C2\Nc3cccc(C(=O)N4C[C@@H]5C[C@H]4CO5)c3N21 [Example 111, (S,E)-1^7-((1S,4S)-2-oxa-5-azabicyclo[2.2.1]heptane-5-carbonyl)-11-methyl-1^2,1^3-dihydro-1^1H-2,6-diaza-1(2,1)-benzo[d]imidazola-4(1,3)-benzenacycloundecaphane-3,5-dione]		24 nM
C[C@H]1CCCCNC(=O)c2cccc(c2)C(=O)/N=C2\Nc3cccc(C(=O)N4C[C@H]5C[C@@H]4CO5)c3N21 [Example 112, (S,E)-1^7-((1R,4R)-2-oxa-5-azabicyclo[2.2.1]heptane-5-carbonyl)-11-methyl-1^2,1^3-dihydro-1^1H-2,6-diaza-1(2,1)-benzo[d]imidazola-4(1,3)-benzenacycloundecaphane-3,5-dione]		8 nM
C[C@H]1CCCCNC(=O)c2cccc(c2)C(=O)NC2Nc3cccc(N4CCCC4=O)c3N21 (stereo partly drawn) [Example 113, (S,E)-11-methyl-1^7-(2-oxopyrrolidin-1-yl)-1^2,1^3-dihydro-1^1H-2,6-diaza-1(2,1)-benzo[d]imidazola-4(1,3)-benzenacycloundecaphane-3,5-dione]	5 nM	5 nM
C[C@H]1CCCCNC(=O)c2cccc(c2)C(=O)/N=C2\Nc3cccc(C(=O)N4CC5(COC5)C4)c3N21 [Example 114, (S,E)-11-methyl-1^7-(2-oxa-6-azaspiro[3.3]heptane-6-carbonyl)-1^2,1^3-dihydro-1^1H-2,6-diaza-1(2,1)-benzo[d]imidazola-4(1,3)-benzenacycloundecaphane-3,5-dione]		10 nM
C[C@H]1CCCCNC(=O)c2cccc(c2)C(=O)/N=C2\Nc3cccc(C(=O)N4CCC5(COC5)C4)c3N21 [Example 115, (S,E)-11-methyl-1^7-(2-oxa-6-azaspiro[3.4]octane-6-carbonyl)-1^2,1^3-dihydro-1^1H-2,6-diaza-1(2,1)-benzo[d]imidazola-4(1,3)-benzenacycloundecaphane-3,5-dione]		11 nM
C[C@H]1CCCCNC(=O)c2cccc(c2)C(=O)/N=C2\Nc3cccc(C(=O)N4CC5(CCCO5)C4)c3N21 [Example 116, (S,E)-11-methyl-1^7-(5-oxa-2-azaspiro[3.4]octane-2-carbonyl)-1^2,1^3-dihydro-1^1H-2,6-diaza-1(2,1)-benzo[d]imidazola-4(1,3)-benzenacycloundecaphane-3,5-dione]		3 nM
C[C@H]1CCCCNC(=O)c2cccc(c2)C(=O)/N=C2\Nc3cccc(C(=O)N4CC5(C4)CC(F)(F)CO5)c3N21 [Example 117, (S,E)-1^7-(7,7-difluoro-5-oxa-2-azaspiro[3.4]octane-2-carbonyl)-11-methyl-1^2,1^3-dihydro-1^1H-2,6-diaza-1(2,1)-benzo[d]imidazola-4(1,3)-benzenacycloundecaphane-3,5-dione]		4 nM

Source: US20240279233A1, “MACROCYCLIC TAK1 INHIBITORS” (Aqilion AB, priority 2021, published 2024)
